{"source": "patent US20040186166A1", "about": "“Cannabinoid analogs as peroxisome proliferator activated nuclear receptor gamma activators” (priority 2002, published 2004)", "key": {"PPARα": {"target": "T1, PPARα (Mus musculus, UniProt P23204)", "T1 construct": "expressed in transfected cells; host or cells: HEK293 / HEK293T", "T1 sequence (P23204 1-468)": "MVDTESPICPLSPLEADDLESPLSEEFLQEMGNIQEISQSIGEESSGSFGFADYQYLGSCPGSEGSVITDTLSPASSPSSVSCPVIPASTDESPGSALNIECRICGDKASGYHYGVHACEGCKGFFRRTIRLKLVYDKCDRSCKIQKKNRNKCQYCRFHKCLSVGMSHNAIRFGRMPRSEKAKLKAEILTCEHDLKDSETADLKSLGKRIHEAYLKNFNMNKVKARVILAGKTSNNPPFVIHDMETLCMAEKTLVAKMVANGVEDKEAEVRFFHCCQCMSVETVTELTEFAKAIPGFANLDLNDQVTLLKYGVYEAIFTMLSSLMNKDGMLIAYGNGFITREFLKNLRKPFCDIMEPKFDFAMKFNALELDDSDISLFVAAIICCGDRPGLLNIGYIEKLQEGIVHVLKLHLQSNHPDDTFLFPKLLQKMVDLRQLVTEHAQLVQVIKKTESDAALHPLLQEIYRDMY", "experiment": "Partial protease (trypsin) digestion assay, PPARα", "assay_type": "binding", "details": "2, 20 and 100 μM AJA", "method": "(§1) Partial protease digestion was carried out as described by Leng et. al. (J Steroid Biochem Mol Biol 46:643-61, 1993). PPAR proteins were made by in vitro transcription/translation reactions in reticulocyte lysate according to the manufacture's instructions (Promega). AJA, GW347845, or vehicle alone was incubated with the 35S-labeled PPARs at room temperature for one hour before trypsin digestion. Reactions were stopped by boiling in SDS-containing sample buffer, and lysates were subjected to SDS-PAGE and autoradiography.\n(§2) The PPAR proteins were synthesized and labeled with ^35S-methionine in reticulocyte lysate and incubated with AJA, GW347845, or vehicle alone at room temperature for one hour before trypsin digestion. The reactions were terminated by boiling in SDS-containing protein sample buffer. The proteolytic patterns of PPAR proteins were then analyzed by SDS-PAGE and autoradiography, and compared with vehicle-treated control samples.\n(§3) The AJA concentrations required to protect PPARγ from trypsin digestion were further measured."}, "PPARδ": {"target": "T2, PPARδ (Mus musculus, UniProt P35396)", "T2 construct": "expressed in transfected cells; host or cells: HEK293 / HEK293T", "T2 sequence (P35396 1-440)": "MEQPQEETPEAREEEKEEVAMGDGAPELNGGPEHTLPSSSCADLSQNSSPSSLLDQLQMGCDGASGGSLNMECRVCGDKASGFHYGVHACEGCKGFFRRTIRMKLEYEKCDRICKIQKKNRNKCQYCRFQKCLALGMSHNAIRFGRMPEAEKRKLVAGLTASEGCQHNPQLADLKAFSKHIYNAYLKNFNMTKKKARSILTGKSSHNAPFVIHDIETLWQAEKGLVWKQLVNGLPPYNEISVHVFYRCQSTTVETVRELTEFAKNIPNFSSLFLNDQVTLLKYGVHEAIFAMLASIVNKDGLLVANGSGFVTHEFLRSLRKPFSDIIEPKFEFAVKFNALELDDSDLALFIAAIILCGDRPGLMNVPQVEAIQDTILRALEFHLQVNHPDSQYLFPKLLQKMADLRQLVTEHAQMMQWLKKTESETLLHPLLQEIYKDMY", "experiment": "Partial protease (trypsin) digestion assay, PPARδ", "assay_type": "binding", "details": "2, 20 and 100 μM AJA", "method": "as §1, §2, §3"}, "[1]": {"tested_on": "PPARγ2 and aP2 gene expression in 3T3 L1 cells", "experiment": "RT-PCR of adipocyte-specific genes", "assay_type": "cell-based", "details": "versus vehicle control", "method": "The adipocyte differentiation assay was performed as described by Mukherjee et. al. (Mol Endocrinol 14: 1425-33, 2000). The 3T3 L1 cells (American Type Culture Collection) were cultured in DMEM media supplemented with 10% calf serum. Two days after reaching confluence, cells were treated with AJA, GW347845, or vehicle (0.1% DMSO) in the presence of 10 μg/ml insulin every other day. After 10 days of treatment with AJA or 7 days with GW347845 at confluence, cells were fixed and stained with Oil Red O (Sigma). For RT-PCR, total cellular RNAs were isolated by TRIzol (Gibco). Reverse transcriptase polymerase chain reaction (RT-PCR) was performed using the superscript first-strand synthesis kit (Invitrogen). After first-strand cDNA was synthesized by use of oligo (dT), cDNA was amplified by PCR. The forward primers and reverse primers used in the amplifications were 5′-GCTGTTATGGGTGAAACTCTGGGAG-3′(SEQ ID NO: 1), and 5′-CTTCATGAGGCCTGTTGTAGAGC-3′ (SEQ ID NO:2), for PPARγ2, 5′-GAGCAAATGGAGTTCCCAGATG-3′ (SEQ ID NO: 3), and 5′-GCAAACAATGGGAATAGTTCACAGTAG-3′ (SEQ ID NO: 4), for aP2, and 5′-GACCACAGTCCATGCCATCAC-3′(SEQ ID NO: 5), and 5′-CATACCAGGAAATGAGCTGAC-3′ (SEQ ID NO: 6), for GAPDH. PCR amplifications were performed in 50 μL volume with Taq DNA polymerase for 30 cycles.\nTo confirm that AJA and GW347845 induce 3T3 L1 cell differentiation into adipocytes, the expression levels of the adipocyte-specific genes PPARγ2 and aP2 were measured by RT-PCR. Total RNA was isolated after AJA or GW347845 treatment, and compared with vehicle control. Reverse transcription was conducted and the relative amounts of PPARγ2 and aP2 transcripts were measured by PCR reactions using primer sets specific to each gene. PCR products were analyzed on 1% agarose gel and stained with Ethidium Bromide. […] As a control for the induction specificity and the PCR amplification reaction, the expression levels of GADPH were measured in all samples, and found not affected by any treatment."}, "[2]": {"details": "cited from earlier work"}}, "data": [{"smiles": "CCCCCCC(C)(C)c1cc(O)c2c(c1)OC(C)(C)[C@@H]1CC=C(C(=O)O)C[C@@H]21", "note": "[AJA, dimethylheptyl-THC-11-oic acid]", "values": [{"measurement": "proteinase sensitivity of PPARα", "setting": "PPARα", "result": "did not affect the proteinase sensitivity"}, {"measurement": "proteinase sensitivity of PPARδ", "setting": "PPARδ", "result": "did not affect the proteinase sensitivity"}, {"measurement": "PPARγ2 gene expression", "setting": "[1]", "result": "enhanced PPARγ2 and aP2 gene expression significantly"}, {"measurement": "aP2 gene expression", "setting": "[1]", "result": "enhanced PPARγ2 and aP2 gene expression significantly"}, {"measurement": "drug dependence", "setting": "[2]; in vivo", "result": "did not exhibit drug dependence"}, {"measurement": "mutagenesis", "setting": "[2]; in vivo", "result": "did not exhibit drug dependence or cause mutagenesis"}, {"measurement": "ulcerogenicity", "setting": "[2]; therapeutically relevant doses", "result": "totally non-ulcerogenic"}]}]}
